As usually defined, the melting point is the temperature, or range, at which the solid turns liquid.

Each structure is given as a SMILES string.

`Cc1cc(C)c([C@H](O)[C@@H](C#N)c2ccccc2)c(C)c1` (racemic) showed a melting point of 132 °C.

For `CC1=CC(=O)C(C)(N=Nc2ccc3ccccc3c2)O1` (centres undefined), the melting point lay within 76 to 77 °C.

For the compound `CCN(CC)c1cccc(-c2ccnc3c(C(=O)c4cccs4)cnn23)c1`, the melting point is 102 to 104 °C.

`O=C(N[C@H]1CC[C@H](CCN2CCN(c3nccc4c3OCC4)CC2)CC1)c1ccc(Cl)cc1` registered a melting point of 252 °C.

For `c1ccc(-c2cc3cnccc3[nH]2)cc1`, the melting point is 276 to 278 °C.

In turn, `CC1Cc2cc(OCc3ccccc3)c(O)cc2C(=O)C1C` (centres undefined) gave a melting point of 90 to 93 °C.

Consider `COc1ccccc1C1C(C#N)=C(C(C)C)Nc2n[nH]cc21` (centres undefined), for which the melting point is > 250 °C.

With `CC(Oc1ccc(Oc2ccc(C(F)(F)F)cn2)cc1)C(=O)OCCOCc1ccccc1` (centres undefined), the melting point is 44 to 47 °C.

Consider `Cc1occ(C(F)(F)F)c1C(=O)O`, for which the melting point turned out to be 140 °C.

For the compound `COc1cc2ccc(C)cc2c(C(C)C)c1OC`, the melting point was 62 to 63 °C.

Consider `CCn1nc2c(N)nc(C)cc2c1CC(C)(C)O`, for which the melting point was 134 to 135 °C.

In turn, `Nc1ccc(-n2c(-c3ccccc3)cc3c2CCCC3)cc1C(=O)O` came in with a melting point of 206 °C.

Take `CN1CCC(c2c[nH]c3ccc(Sc4ccc(Cl)cc4)cc23)CC1`: the melting point lay in the range of 148 to 150 °C.

`CNC(=O)Nc1scc(C(C)(C)C)c1C#N`: the melting point was in the range of 212 to 214 °C.

On to `CC(C(=O)O)c1ccc(-c2ccc(F)cc2)c(F)c1` (centres undefined), for which the melting point was 118 to 119 °C.

With `OC(Cc1ccccn1)c1ccccc1` (centres undefined), the melting point lay within 105 to 107 °C.

With `COC(=O)C1C(OC)=CCc2ccc(OC)cc21` (centres undefined), the melting point fell in the range of 90 to 91 °C.

In turn, `COC(=O)/C(=C\C=C\c1sc2ccccc2c1C)OC` came in with a melting point of 91 to 92 °C.

In the case of `CS(=O)(=O)N(CCN1C(=O)c2ccccc2C1=O)c1c(Cl)c(Cl)cc2[nH]c(=O)c(=O)[nH]c12`, the melting point is > 300 °C.

Compound `COc1ccc(Cn2c(Cl)nc3c(-c4ccc(Cl)o4)ncnc32)cc1` yielded a melting point of 156 to 157 °C.

`CCC(C)(C(=O)N(C)C)n1cc(C)c(-c2ccccc2)n1` (centres undefined) returned a melting point of 102 to 104 °C.

`O=C(O)c1cccc2c1Cc1c-2[nH]c2ccc(I)cc12` displayed a melting point of 251 °C.

`O=C(Nc1ccc(Oc2cc(Cl)ncn2)cc1)Nc1ccc(Br)c(C(F)(F)F)c1`: the melting point lay within 179 to 182 °C.

`Cc1cc(NC(=O)c2c(Cl)cccc2Cl)c2nccc(Cl)c2c1`: the melting point fell in the range of 203 to 205 °C.

Compound `CCn1cc(C(=O)O)c(=O)c2cc(F)c(-c3csc(CN)n3)c(F)c21` gave a melting point of 199 to 203 °C.

Regarding `Cc1cc(-c2cc(C(F)F)n3ncc(C(=O)Nc4cccc(S(=O)(=O)NC5CC5)c4)c3n2)ccc1C(F)(F)F`, the melting point was found to be 199 °C.

Regarding `CC1NC(=O)NN=C1c1ccc(NCCCN)cc1` (centres undefined), the melting point lay in the range of 178 to 179 °C.

In turn, `COC(=O)C(Oc1ccc(C(C)(C)C)cc1Cl)c1ccc(Oc2ccc(Cl)cc2)cc1` (centres undefined) yielded a melting point of 85.5 to 88 °C.

As to `CCC(C)(C)Nc1c(NCc2ccc(Cl)cc2Cl)c(=O)c1=O`, the melting point is 196 to 197 °C.

`COc1cc(OC)cc(-c2oc3ncnc(N4CCCCC4)c3c2-c2ccccc2)c1` registered a melting point of 152 to 153 °C.

Consider `Brc1ccc2c(c1)OCCN2C1CCOCC1`, for which the melting point is 66.2 °C.

For the compound `C[C@H]1[C@@H](O)C(C)(C)C(=O)N1c1ccc(C#N)c(C(F)(F)F)c1`, the melting point was in the range of 120 to 121 °C.

Compound `NC(=O)c1cc(OCCNCC(O)c2ccco2)ccc1O` (centres undefined) yielded a melting point of 169 to 171 °C.

Turning to `Cc1ccc(C(=O)O)c(NS(C)(=O)=O)c1`, the melting point was 202 to 205 °C.

Compound `CCCCNC(=O)NS(=O)(=O)c1c(C(=O)OCC)cnn1C` came in with a melting point of 117 to 119 °C.

In turn, `O=C(NC1CC1)c1cc(Nc2nc(N3CCCC3c3ccccn3)nc3ccoc23)[nH]n1` (centres undefined) returned a melting point of 238 °C.

As to `COc1ccccc1NC(=O)Nc1nc(Nc2ccccc2-c2ccccc2)nc(N(CCC(=O)O)Cc2cccc3ccccc23)n1`, the melting point is 218 to 221 °C.

For the compound `Cc1c(NC(=O)CC(C)(C)C)cc2c(c1C)OC(C)(C)C2(O)c1ccc(C(C)C)cc1` (centres undefined), the melting point lay within 119 to 121 °C.

In turn, `COc1cn(-c2cccc(C(F)(F)F)c2)nc(C(C)=O)c1=O` showed a melting point of 155 to 156 °C.

Consider `COc1cc2ncnc(N3CCc4cccc(C)c43)c2cc1OC`, for which the melting point fell in the range of 146 to 147 °C.

`CCCN1c2ncccc2C(=O)N(C)c2ccc(-c3cn[nH]c3)nc21` displayed a melting point of 206 to 207 °C.

`COc1ccccc1N1CCN(CC(Cc2ccccc2)C(=O)O)CC1` (centres undefined) showed a melting point of 155 to 158 °C.

`CSc1ccc(-c2coc3ccc(-c4nnc(C)o4)cc23)cc1C` yielded a melting point of 185 to 186 °C.

Compound `CCCN(C)C(=O)COC1c2ccccc2C(=O)N1c1ccc2ccc(OC)nc2n1` (centres undefined) returned a melting point of 160 °C.

`COc1cc(Nc2c(C#N)cnc3cc(-c4csc(CN5CCOCC5)c4)c(OC)cc23)c(Cl)cc1Cl` yielded a melting point of 148 to 150 °C.

As to `CC(C)(C)c1cc(CCc2ccccc2NC(=O)NCC2CCCCC2)cc(C(C)(C)C)c1O`, the melting point fell in the range of 208 to 210 °C.

The compound `CCCc1nc(NS(=O)(=O)c2ccc(C(C)(C)C)cc2)c(-c2ccc(C)cc2)c(OCCOc2ncc(-c3cccs3)cn2)n1` came in with a melting point of 165 to 166 °C.

Compound `O=CC1(Br)C2CCC(CC2)C1c1ccccc1` (centres undefined) came in with a melting point of 65 to 66 °C.

For the compound `COc1cccc([C@H]2O[C@H](CC(=O)Nc3cc(CCC(=O)O)ccc3F)C(=O)N(CC(C)(C)CO)c3ccc(Cl)cc32)c1OC`, the melting point was 151 to 152 °C.

Regarding `O=C(O)CCCCCNC(=O)c1cn2c3c(cccc13)CCC2`, the melting point lay in the range of 158 to 161 °C.

In turn, `COc1ccc(C(=O)Nc2ccccc2)cc1NS(=O)(=O)Cc1ccccc1` came in with a melting point of 216 °C.

The compound `CCN1CCN(CC)C2SC(=C(C(=O)OC(C)C)C(=O)OC(C)C)SC21` (centres undefined) came in with a melting point of 84 to 86 °C.

`CCOC(=O)C1=C(c2ccc(OC)cc2)Nc2n[nH]cc2C1c1ccccc1Cl` (centres undefined) had a melting point of 211 °C.

Turning to `Cc1nc2cc(Cn3ccnc3)ccc2n1Cc1cccnc1`, the melting point was 174 °C.

`COc1ccc(NC(=O)c2ccc(-c3ccc(C(=O)N4CCCC4)cc3C)cc2)cc1N1CCN(C)CC1` yielded a melting point of 187 to 188 °C.

In turn, `O=c1ccc2ccc(CO)cc2o1` registered a melting point of 116 to 117 °C.

For `Cc1cc(F)ccc1Oc1ccc(C2=CC=CN3CCS(=O)(=O)N=C23)cc1`, the melting point fell in the range of 240 to 242 °C.

Consider `CC(C)=CCNC(=N)N[N+](=O)[O-]`, for which the melting point was in the range of 134 to 136 °C.

The compound `COc1ccc(CCCC(=O)NC(NC(Cc2ccccc2C)=NC#N)C(C)(C)C)cc1` (centres undefined) yielded a melting point of 171 to 172 °C.

In the case of `CCCCc1cc(CCCc2c3c(nn2CCC)c(N)nc2ccccc23)no1`, the melting point was in the range of 132 to 133 °C.

`CCOC(=O)c1cnc2c(c(C)nc3cc(C)nn32)c1N1CCN(C)CC1`: the melting point was in the range of 158 to 159 °C.

In the case of `COc1c(Cc2ccccc2)cc(C(=O)O)c2ccccc12`, the melting point was 146 to 148 °C.

For the compound `Cc1cc(CSCCN)sc1CN1CCCCC1`, the melting point came out at 81 °C.

In turn, `CC(=O)N(CCOc1ccc(CC2SC(=O)NC2=O)cc1)c1ncccn1` (centres undefined) came in with a melting point of 137 °C.

As to `Cc1cc2oc(C#N)cc(=O)c2c(C)c1Cl`, the melting point was 142 to 143 °C.

With `CCOC(=O)C=Cc1cccnc1OCc1ccc(OCc2nc(-c3ccco3)oc2C)c(OC)c1`, the melting point is 85 to 87 °C.

`CCCCCCCCCCCCCCCCC=Cc1ccc(O)c(C(=O)O)c1` yielded a melting point of 95 °C.

Take `COc1ccc(F)c(F)c1C(=O)c1cnc(Cl)nc1Cl`: the melting point was in the range of 137 to 139 °C.

Regarding `N#Cc1c(N2CCCCC2)cc(-c2ccc3ccc4cccc5ccc2c3c45)c2c1-c1ccccc1C2`, the melting point fell in the range of 114 to 116 °C.

In turn, `COc1cc(C)c(C=CC(C)=CC=CC(C)=CC(=O)OC2C(OC)OC(CO)C(O)C2O)c(C)c1C` (centres undefined) gave a melting point of 197 °C.

Turning to `O=C(O)c1ccc(NC(=O)c2ccc(Cl)cc2)cc1`, the melting point was > 260 °C.

`Cc1ccccc1N1CCN(CCn2c(=O)[nH]c3ccsc3c2=O)CC1`: the melting point is 212 to 214 °C.

`O=C(O)C1c2ccccc2COc2ccc(C(F)(F)F)cc21` (centres undefined) displayed a melting point of 258 to 260 °C.

`O=c1cnc2c(NCCO)nc(SCc3cccc(C(F)(F)F)c3F)nc2[nH]1` returned a melting point of 221 to 222 °C.

In turn, `O=C(Nn1ccnc1)N1CCCCC1COCc1ccccc1Cl` (centres undefined) displayed a melting point of 91 to 92 °C.

Consider `O=S(=O)(N[C@H]1CC[C@H](CCN2CCC(c3cccc4c3CCO4)CC2)CC1)c1ccccc1`, for which the melting point came out at 130 °C.

For `CC1(C)Oc2cc(N)c(C#N)cc2[C@@H](N2CCCC2)[C@@H]1O` (relative stereo), the melting point lay within 158 to 160 °C.

`COC(=O)C1CCCN1C(=O)Cc1c(C)cc(C)cc1C` (centres undefined) returned a melting point of 74 °C.

For the compound `O=C(/C=C/c1ccc(Br)cc1)c1c(F)cccc1F`, the melting point was determined as 71 °C.

The compound `CC(C)(C)OC(=O)NCCOc1noc2c(C#N)cccc12` gave a melting point of 91 to 92 °C.

For the compound `CN(C)Cc1cccc(C(F)(F)C(F)(F)c2ccccc2)c1CN`, the melting point fell in the range of 71 to 83 °C.

`COC(=O)c1cc(-c2ccc(OC)c(F)c2)nn(Cc2ccc(Cl)cc2)c1=O`: the melting point is 170 to 171 °C.

As for `O=c1c2cccnc2c(-c2ccccc2)nn1-c1ccccc1`, the melting point was in the range of 174 to 176 °C.

The compound `CON1C=C2N=NC3=C(N2C1)N(c1cc(Cl)ccc1Cl)CC(C)=C3` yielded a melting point of 159 to 162 °C.

Turning to `CON(C)C(=O)Nc1ccc(OCCc2ccc(C)cn2)cc1`, the melting point was in the range of 110 to 112 °C.

`O=S(=O)(c1ccc(O)cc1)c1c(-c2ccccc2)oc2ccccc12` came in with a melting point of 166 to 168 °C.

`CN=c1[nH]c2ccccc2c2nc(-c3ccc[nH]3)nn12`: the melting point lay in the range of 220 to 221 °C.

The compound `CCOP(=O)(Cc1ccc(C(=S)N2CCCc3ccccc32)cc1)OCC` returned a melting point of 96 to 97 °C.

For `N#CCCNC(=O)c1cccc(-c2cccc3cc(Cc4cccc(C(F)(F)F)c4)oc23)c1`, the melting point fell in the range of 154 to 155 °C.
